Results published in patent US20220184071A1, “GEPOTIDACIN FOR USE IN THE TREATMENT OF BACTERIAL URINARY TRACT INFECTIONS” (GlaxoSmithKline Intellectual Property Development Limited, priority 2019, published 2022).
Values after ≈ are worked out from the molar mass of the structure shown.

Key:
S. saprophyticus = experiment: Phase IIa PK/PD and microbiological response by uropathogen; format: in vivo, human; conditions: Participant 8
Procedure: (§1) This phase IIa single center study evaluated the safety, tolerability, pharmacokinetics, and efficacy of oral gepotidacin 1500 mg BID for 5 days in female subjects with acute cystitis. Clean catch mid-stream urine specimens were obtained for quantitative culture by standard methods. Urine samples were taken from all participants pre-treatment (baseline) and at all post-baseline visits. All urine samples were sent to a central laboratory (PPD Global Clinical Laboratories, Highland Heights, Ky., USA) for Gram stain, quantitative culture, pathogen identification and susceptibility testing. See FIG. 1 for participant disposition and study outline.
(§2) Susceptibility testing by CLSI broth microdilution and gradient diffusion (fosfomycin only) was conducted (CLSI, 2015, Methods for dilution antimicrobial susceptibility tests for bacteria that grow aerobically; approved standard-tenth edition; and CLSI, 2018. Performance Standards for Antimicrobial Susceptibility Testing; Twenty-seventh Informational Supplement M100-S28). Inclusion in the microbiological intent-to-treat population (micro-ITT), required growth of a qualifying baseline uropathogen (≥10^5 CFU/mL). See FIG. 2 for the baseline algorithm.
(§3) For pharmacokinetic assessments, serial blood and urine samples for the assessment of gepotidacin PK concentrations were collected out to 12 hours post dose (T) following the morning dose on Days 1 and 4. CT (trough) concentrations were collected on Days 1-5. PK concentrations of gepotidacin in plasma and urine were measured using a validated LC-MS/MS bio-analytical assay.

K. pneumoniae = experiment: as above; format: in vivo, human; conditions: Participant 7
Procedure: as §1, §2, §3

E. coli = experiment: as above; format: in vivo, human
Procedure: as §1, §2, §3

C. koseri = experiment: as above; format: in vivo, human; conditions: Participant 1
Procedure: as §1, §2, §3

[1] = tested on: Fusobacterium necrophorum; experiment: MIC by agar dilution, drug-resistant isolates; format: cell-based; conditions: clindamycin R; 1 isolate
Procedure: (§4) Antimicrobial activity was determined by agar dilution using the Clinical and Laboratory Standards Institute (CLSI) recommended procedure.
(§5) The compounds were tested in serial two-fold dilutions and the minimum inhibitory concentration (MIC) was determined as the lowest concentration of the compound that inhibited visible growth. Gepotidacin was tested against 333 gram-negative anaerobic and 203 gram-positive anaerobic isolates collected from clinical samples in North America and Europe from 2000 to 2017; the majority collected from 2013 to 2016.
(§6) Additional analysis was performed from the results of the study described in Method 1 above, to determine the in vitro activity of gepotidacin against gram-negative and gram-positive anaerobic organisms with resistance to ceftriaxone, clindamycin, imipenem, metronidazole, moxifloxacin and piperacillin/tazobactam.

[2] = tested on: Fusobacterium, non-speciated; experiment: MIC by agar dilution, drug-resistant isolates; format: cell-based; conditions: 1 isolate
Procedure: as §4, §5, §6

Eubacterium nodatum = experiment: MIC by agar dilution, drug-resistant isolates; format: cell-based; conditions: metronidazole R; 1 isolate
Procedure: as §4, §5, §6

[3] = tested on: Eubacterium, non-speciated; experiment: MIC by agar dilution, drug-resistant isolates; format: cell-based; conditions: 1 isolate
Procedure: as §4, §5, §6

[4] = tested on: Bacteroides thetaiotaomicron; experiment: MIC by agar dilution, drug-resistant isolates; format: cell-based
Procedure: as §4, §5, §6

Bacteroides uniformis = experiment: MIC by agar dilution, drug-resistant isolates; format: cell-based
Procedure: as §4, §5, §6

Bacteroides vulgatus = experiment: MIC by agar dilution, drug-resistant isolates; format: cell-based
Procedure: as §4, §5, §6

[5] = tested on: Bifidobacterium pseudocatenulatum; experiment: MIC by agar dilution, drug-resistant isolates; format: cell-based; conditions: clindamycin R; 1 isolate
Procedure: as §4, §5, §6

[6] = tested on: Veillonella, non-speciated; experiment: MIC by agar dilution, drug-resistant isolates; format: cell-based
Procedure: as §4, §5, §6

[7] = tested on: Lactobacillus, non-speciated; experiment: MIC by agar dilution, drug-resistant isolates; format: cell-based
Procedure: as §4, §5, §6

Lactobacillus gasseri = experiment: MIC by agar dilution, drug-resistant isolates; format: cell-based; conditions: clindamycin R; 2 isolates
Procedure: as §4, §5, §6

Porphyromonas levii = experiment: MIC by agar dilution, drug-resistant isolates; format: cell-based; conditions: metronidazole R; 1 isolate
Procedure: as §4, §5, §6

Prevotella bivia = experiment: MIC by agar dilution, drug-resistant isolates; format: cell-based
Procedure: as §4, §5, §6

Porphyromonas somerae = experiment: MIC by agar dilution, drug-resistant isolates; format: cell-based; conditions: clindamycin R; 1 isolate
Procedure: as §4, §5, §6

Bifidobacterium longum = experiment: MIC by agar dilution, drug-resistant isolates; format: cell-based; conditions: moxifloxacin R; 1 isolate
Procedure: as §4, §5, §6

Bacteroides caccae = experiment: MIC by agar dilution, drug-resistant isolates; format: cell-based
Procedure: as §4, §5, §6

Bacteroides fragilis = experiment: MIC by agar dilution, drug-resistant isolates; format: cell-based
Procedure: as §4, §5, §6

[8] = tested on: Prevotella melaninogenica; experiment: MIC by agar dilution, drug-resistant isolates; format: cell-based; conditions: 1 isolate
Procedure: as §4, §5, §6

Bacteroides stercoris = experiment: MIC by agar dilution, drug-resistant isolates; format: cell-based; conditions: ceftriaxone R, 2 isolates
Procedure: as §4, §5, §6

Prevotella buccae = experiment: MIC by agar dilution, drug-resistant isolates; format: cell-based; conditions: 4 isolates
Procedure: as §4, §5, §6

[9] = tested on: Porphyromonas, non-speciated; experiment: MIC by agar dilution, drug-resistant isolates; format: cell-based; conditions: 1 isolate
Procedure: as §4, §5, §6

[10] = tested on: Bifidobacterium adolescentis; experiment: MIC by agar dilution, drug-resistant isolates; format: cell-based; conditions: moxifloxacin R; 1 isolate
Procedure: as §4, §5, §6

With O=c1ccc2ncc(=O)n3c2n1C[C@H]3CN1CCC(NCc2cc3c(cn2)OCCC3)CC1 [gepotidacin, (2R)-2-({4-[(3,4-dihydro-2H-pyrano[2,3-c]pyridin-6-ylmethyl)amino]-1-piperidinyl}methyl)-1,2-dihydro-3H,8H-2a,5,8a-triazaacenaphthylene-3,8-dione] the “Microbiological success at Follow-up” value (S. saprophyticus) was “Success”, the “Microbiological success at TOC” value (S. saprophyticus) was “Success” and the “Microbiological success at Follow-up” value (K. pneumoniae) was “Success”. For the same compound, the “Microbiological success at TOC” value (K. pneumoniae) was “microbiological success”, the “Microbiological success at TOC” value (K. pneumoniae; listed as GEP) was “Success” and the “Microbiological success at Follow-up” value (E. coli; Participant 2) was “Success”. The “Microbiological success at TOC” value (E. coli; Participant 2) was “Success”, the “Microbiological success at Follow-up” value (E. coli; Participant 3) was “Success” and the “Microbiological success at TOC” value (E. coli; Participant 3) was “Success”. For the same compound, the “Microbiological success at Follow-up” value (E. coli; Participant 4) was “Success”, the “Microbiological success at TOC” value (E. coli; Participant 4) was “Success” and the “Microbiological success at TOC” value (E. coli; Participant 5, failure due to an out of stability urine specimen) was “Failure^b”. The “Microbiological success at Follow-up” value (E. coli; Participant 5, failures at TOC considered failures at Follow-up) was “Failure^c”, the “Microbiological success at Follow-up” value (E. coli; Participant 6, MDR) was “Success” and the “Microbiological success at TOC” value (E. coli; Participant 6, MDR) was “Success”. For the same compound, the “Microbiological success at Follow-up” value (C. koseri) was “Failure”, the “Microbiological success at TOC” value (C. koseri) was “Success” and the “Gepotidacin MIC range” value [1] was 0.25 µg/mL. For the same compound, the “Gepotidacin MIC range” value ([2]; ceftriaxone R) was 2 µg/mL, the “Gepotidacin MIC range” value ([2]; clindamycin R) was 2 µg/mL and the “Gepotidacin MIC range” value (Eubacterium nodatum) was 0.125 µg/mL. For the same compound, the “Gepotidacin MIC range” value ([3]; ceftriaxone R) was 2 µg/mL, the “Gepotidacin MIC range” value ([3]; clindamycin R) was 2 µg/mL and the “Gepotidacin MIC range” value ([3]; moxifloxacin R) was 2 µg/mL. For the same compound, the “Gepotidacin MIC range” value ([4]; ceftriaxone R, 43 isolates) was 0.5 to 16 µg/mL, the “Gepotidacin MIC range” value ([4]; clindamycin R, 21 isolates) was 0.5 to 8 µg/mL and the “Gepotidacin MIC range” value ([4]; moxifloxacin R, 6 isolates) was 0.5 to 8 µg/mL. For the same compound, the “Gepotidacin MIC range” value (Bacteroides uniformis; ceftriaxone R, 3 isolates) was 1 to 2 µg/mL, the “Gepotidacin MIC range” value (Bacteroides uniformis; clindamycin R, 1 isolate) was 1 µg/mL and the “Gepotidacin MIC range” value (Bacteroides uniformis; moxifloxacin R, 1 isolate) was 1 µg/mL. For the same compound, the “Gepotidacin MIC range” value (Bacteroides vulgatus; ceftriaxone R, 7 isolates) was no more than 0.015 to 4 µg/mL, the “Gepotidacin MIC range” value (Bacteroides vulgatus; clindamycin R, 4 isolates) was no more than 0.015 to 2 µg/mL and the “Gepotidacin MIC range” value (Bacteroides vulgatus; moxifloxacin R, 3 isolates) was 0.25 to 4 µg/mL. The “Gepotidacin MIC range” value [5] was 4 µg/mL, the “Gepotidacin MIC range” value ([6]; clindamycin R, 4 isolates) was 0.125 µg/mL and the “Gepotidacin MIC range” value ([6]; moxifloxacin R, 1 isolate) was no more than 0.015 µg/mL. For the same compound, the “Gepotidacin MIC range” value ([7]; clindamycin R, 1 isolate) was 0.03 µg/mL, the “Gepotidacin MIC range” value ([7]; imipenem R, 9 isolates) was 0.03 to 1 µg/mL and the “Gepotidacin MIC range” value (Lactobacillus gasseri) was 0.5 to 1 µg/mL. For the same compound, the “Gepotidacin MIC range” value (Porphyromonas levii) was no more than 0.015 µg/mL, the “Gepotidacin MIC range” value (Prevotella bivia; ceftriaxone R, 1 isolate) was 1 µg/mL and the “Gepotidacin MIC range” value (Prevotella bivia; clindamycin R, 2 isolates) was 0.5 to 4 µg/mL. The “Gepotidacin MIC range” value (Prevotella bivia; moxifloxacin R, 2 isolates) was 4 µg/mL, the “Gepotidacin MIC range” value (Porphyromonas somerae) was 0.06 µg/mL and the “Gepotidacin MIC range” value (Bifidobacterium longum) was 0.12 µg/mL. The MIC (Bacteroides caccae; Bacteroides caccae, 1 drug-resistant isolate) was 8 µg/mL (≈ 17.8 µM), the “Gepotidacin MIC range” value (Bacteroides caccae; ceftriaxone R, 2 isolates) was 0.05 to 8 µg/mL and the “Gepotidacin MIC range” value (Bacteroides caccae; clindamycin R, 1 isolate) was 8 µg/mL. For the same compound, the “Gepotidacin MIC range” value (Bacteroides caccae; moxifloxacin R, 1 isolate) was 0.5 µg/mL, the “Gepotidacin MIC range” value (Bacteroides fragilis; ceftriaxone R, 35 isolates) was 0.25 to 32 µg/mL and the “Gepotidacin MIC range” value (Bacteroides fragilis; clindamycin R, 22 isolates) was no more than 0.015 to 32 µg/mL. For the same compound, the “Gepotidacin MIC range” value (Bacteroides fragilis; imipenem R, 1 isolate) was 0.5 µg/mL, the “Gepotidacin MIC range” value (Bacteroides fragilis; moxifloxacin R, 19 isolates) was 0.25 to 32 µg/mL and the “Gepotidacin MIC range” value (Bacteroides fragilis; pip/tazo R, 2 isolates) was 0.5 to 4 µg/mL. The “Gepotidacin MIC range” value ([8]; ceftriaxone R) was 0.25 µg/mL, the “Gepotidacin MIC range” value ([8]; clindamycin R) was 0.25 µg/mL and the “Gepotidacin MIC range” value (Bacteroides stercoris) was 0.12 to 1 µg/mL. For the same compound, the “Gepotidacin MIC range” value (Prevotella buccae; ceftriaxone R) was 0.25 to 2 µg/mL, the “Gepotidacin MIC range” value (Prevotella buccae; clindamycin R) was 0.25 to 4 µg/mL and the “Gepotidacin MIC range” value ([9]; ceftriaxone R) was 0.125 µg/mL. For the same compound, the “Gepotidacin MIC range” value ([9]; clindamycin R) was 0.06 µg/mL, the “Gepotidacin MIC range” value ([9]; imipenem R) was 0.125 µg/mL and the “Gepotidacin MIC range” value [10] was 0.25 µg/mL.
